Structures can show the parent of a compound that is named as a salt. Where two headings read alike, the source gives them in different places.
Assays:
[1] = biological target: GST-Syk Full Protein (human) (Homo sapiens, UniProt P43405); assay: Syk kinase inhibition test (HTRF method); assay type: biochemical
Procedure, shortened: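 HTRF read-out: after EDTA termination and 1 h with XL665-streptavidin and Eu-anti-phosphotyrosine, the 665/620 nm ratio was measured. The reaction ran 30 min at 20–25 °C with final 6.4 nM human GST-Syk, 250 nM biotinylated peptide, 100 μM ATP, pH 7.0 HEPES buffer, 2% DMSO.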

[2] = system: cultured human mast cells; assay: Degranulation inhibition test using cultured human mast cells (IgE cross-linking, β-Hexosaminidase release); assay type: cell-based; settings: Mast cell, cultured human mast cells, read-out: human degranulation ave. IC50
Procedure, shortened: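 Degranulation was triggered by anti-hIgE (10 μg/mL final, 30 min, 37 °C) after a 10-min compound pretreatment (DMSO 0.1%) of cord-blood CD34+-derived mast cells primed 5 days with IL-4 and IgE. β-Hexosaminidase in supernatant was measured with p-nitrophenyl-GlcNAc substrate (A405), expressed against water-lysed total; IC50 (M).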

[3] = Tables 1-x, compounds A, read-out: sykHTRF ave IC50
[4] = HTRF, 100 μM ATP, 30 min room temperature, average, read-out: sykHTRF ave IC50
[5] = anti-hIgE stimulation, β-Hexosaminidase index, average
[6] = Tables 2-x, thiophene compounds B, read-out: sykHTRK ave IC50
[7] = Tables 2-x, thiophene compounds B

Compound	IC50 [1, 4] [nM]	IC50 [2, 5] [nM]	also measured
CC(=O)N[C@@H]1CCN(c2ncc(-c3cccc(Nc4cc(C)ccn4)n3)s2)C1 [Compound A-472, N—((R)-1-{5-[6-(4-methylpyridin-2-ylamino)pyridin-2-yl]thiazol-2-yl}pyrrolidin-3-yl)acetamide]	–	–	IC50 [1, 3]: < 100 nM; IC50 ([2]; Tables 1-x, compounds A): 100 to 1000 nM
Cc1ccnc(Nc2cccc(-c3cnc(CN(C)C(=O)C4CC4)s3)n2)c1 [Compound A-358]	100 to 1000	100 to 1000	–
CO/N=C(\C)c1ccc(-c2cccc(Nc3cc(OC(C)C)ncn3)n2)s1 [Compound B-33]	–	–	IC50 [1, 6]: 100 to 1000 nM; IC50 [2, 7]: > 1000 nM
Cc1ccnc(Nc2cccc(-c3cnc(N(C)CC(=O)NCC(=O)O)s3)n2)c1 [Compound A-571, [2-(N-methyl-N-{5-[6-(4-methylpyridin-2-ylamino)pyridin-2-yl]thiazol-2-yl}amino)acetylamino]acetic acid dihydrochloride]	–	–	IC50 [1, 3]: < 100 nM; IC50 ([2]; Tables 1-x, compounds A): > 1000 nM
CC(=O)N[C@@H](C)c1nc(C)c(-c2cccc(Nc3cc(C)ccn3)n2)s1 [Compound A-105]	100 to 1000	> 1000	–
Cc1ccnc(Nc2cccc(-c3cnc([C@@H](O)CN(C)C)s3)n2)c1 [Compound A-375]	100 to 1000	100 to 1000	–
Cc1ccnc(Nc2cccc(-c3cnc([C@H]4CC[C@H](C(=O)N5CCCCC5)CC4)s3)n2)c1 [Compound A-274]	100 to 1000	> 1000	–
Cc1ccnc(Nc2cccc(-c3cnc([C@@H](N)CCC(=O)OCc4ccccc4)s3)n2)c1 [Compound A-97]	100 to 1000	100 to 1000	–
COc1cc(C(=O)O)ccc1CN(C)c1ncc(-c2cccc(Nc3cc(C)ccn3)n2)s1 [Compound A-606, 3-methoxy-4-[(N-methyl-N-{5-[6-(4-methylpyridin-2-ylamino)pyridin-2-yl]thiazol-2-yl}amino)methyl]benzoic acid dihydrochloride]	–	–	IC50 [1, 3]: < 100 nM; IC50 ([2]; Tables 1-x, compounds A): 100 to 1000 nM
CNC(=O)COCC1CCCN(c2ncc(-c3cccc(Nc4cc(C)ccn4)n3)s2)C1 (centres unmarked) [Compound A-502, N-methyl-2-(1-{5-[6-(4-methylpyridin-2-ylamino)pyridin-2-yl]thiazol-2-yl}piperidin-3-ylmethoxy)acetamide]	–	–	IC50 [1, 3]: < 100 nM; IC50 ([2]; Tables 1-x, compounds A): 100 to 1000 nM
CC(=O)c1ccnc(Nc2cccc(-c3cnc(N4CCC[C@H]4C(N)=O)s3)n2)c1 [Compound A-561, (S)-1-{5-[6-(4-acetylpyridin-2-ylamino)pyridin-2-yl]thiazol-2-yl}pyrrolidine-2-carboxamide]	–	–	IC50 [1, 3]: < 100 nM; IC50 ([2]; Tables 1-x, compounds A): 100 to 1000 nM
Cc1ccnc(Nc2cccc(-c3ccc(C(=O)NC4CC4)s3)n2)c1 [Compound B-104]	–	–	IC50 [1, 6]: 100 to 1000 nM; IC50 [2, 7]: > 1000 nM
Cc1ccnc(Nc2cccc(-c3cnc(C4CCC(=NO)CC4)s3)n2)c1 (centres unmarked) [Compound A-74, 4-{5-[6-(4-methylpyridin-2-ylamino)pyridin-2-yl]thiazol-2-yl}cyclohexanone oxime]	< 100	> 1000	–
COC(=O)NCCc1ncc(-c2cccc(Nc3cc(C)ccn3)n2)s1 [Compound A-308]	100 to 1000	100 to 1000	–
Cc1ccnc(Nc2cccc(-c3cnc(CCc4ccc(NC(=O)CO)cc4)s3)n2)c1 [Compound A-237, 2-hydroxy-N-[4-(2-{5-[6-(4-methylpyridin-2-ylamino)pyridin-2-yl]thiazol-2-yl}ethyl)phenyl]acetamide]	< 100	100 to 1000	–
Cc1ccnc(Nc2cccc(-c3cnc(N4CCC(N(C)C(=O)CO)CC4)s3)n2)c1 [Compound A-483, 2-hydroxy-N-methyl-N-(1-{5-[6-(4-methylpyridin-2-ylamino)pyridin-2-yl]thiazol-2-yl}piperidin-4-yl)acetamide]	–	–	IC50 [1, 3]: < 100 nM; IC50 ([2]; Tables 1-x, compounds A): 100 to 1000 nM
Cc1ccnc(Nc2cccc(-c3cnc(N(C)Cc4ccc(C(=O)O)cc4Cl)s3)n2)c1 [Compound A-604, 3-chloro-4-[(N-methyl-N-{5-[6-(4-methylpyridin-2-ylamino)pyridin-2-yl]thiazol-2-yl}amino)methyl]benzoic acid dihydrochloride]	–	–	IC50 [1, 3]: < 100 nM; IC50 ([2]; Tables 1-x, compounds A): 100 to 1000 nM

Compound	IC50 [1, 4] [nM]	IC50 [2, 5] [nM]	also measured
CC(=O)NCc1ncc(-c2cccc(Nc3cc(C)ccn3)n2)s1 [Compound A-143]	100 to 1000	100 to 1000	–
Cc1ccnc(Nc2cccc(-c3cnc(COCC(=O)N4C[C@@H](O)[C@@H](O)C4)s3)n2)c1 [Compound A-374]	100 to 1000	> 1000	–
Cc1ccnc(Nc2cccc(-c3ccc(C#N)s3)n2)c1 [Compound B-59]	–	–	IC50 [1, 6]: 100 to 1000 nM; IC50 [2, 7]: > 1000 nM
COC(=O)c1sc(-c2cccc(Nc3cc(C)ccn3)n2)cc1C [Compound B-36]	–	–	IC50 [1, 6]: 100 to 1000 nM; IC50 [2, 7]: > 1000 nM
CC(=NO)c1ccc(-c2cccc(Nc3cc(C)ccn3)n2)s1 [Compound B-15, 1-{5-[6-(4-methylpyridin-2-ylamino)pyridin-2-yl]thiophen-2-yl}ethanone oxime]	–	–	IC50 [1, 6]: < 100 nM; IC50 [2, 7]: 100 to 1000 nM
Cc1ccnc(Nc2cccc(-c3cnc(Cc4cccnc4)s3)n2)c1 [Compound A-248, N-(4-methylpyridin-2-yl)-N-[6-(2-pyridin-3-ylmethylthiazol-5-yl)pyridin-2-yl]amine]	< 100	100 to 1000	–
Cc1ccnc(Nc2cccc(-c3cnc([C@@H](N)COCc4ccccc4)s3)n2)c1 [Compound A-44]	> 1000	> 1000	–
Cc1ccnc(Nc2cccc(-c3cnc([C@@H](N)CCC(=O)O)s3)n2)c1 [Compound A-106]	100 to 1000	> 1000	–
CCOC(=O)Cc1ccnc(Nc2cccc(-c3ccc(C(C)=O)s3)n2)c1 [Compound B-52, {2-[6-(5-acetylthiophen-2-yl)pyridin-2-ylamino]pyridin-4-yl}acetic acid ethyl ester]	–	–	IC50 [1, 6]: < 100 nM; IC50 [2, 7]: > 1000 nM
Cc1ccnc(Nc2cccc(-c3cnc(N4CC[C@@H](N)C4)s3)n2)c1 [Compound A-473, (R)-1-{5-[6-(4-methylpyridin-2-ylamino)pyridin-2-yl]thiazol-2-yl}pyrrolidin-3-ylamine]	–	–	IC50 [1, 3]: < 100 nM; IC50 ([2]; Tables 1-x, compounds A): > 1000 nM
CC(=O)N1CCN(C(=O)c2ccc(-c3cccc(Nc4cc(C)ccn4)n3)s2)CC1 [Compound B-85]	–	–	IC50 [1, 6]: 100 to 1000 nM; IC50 [2, 7]: 100 to 1000 nM
Cc1ccnc(Nc2cccc(-c3cnc(CN4CCC(N)CC4)s3)n2)c1 [Compound A-197, 1-{5-[6-(4-methylpyridin-2-ylamino)pyridin-2-yl]thiazol-2-ylmethyl}piperidin-4-ylamine]	< 100	100 to 1000	–
CNC(=O)CC1CCN(c2ncc(-c3cccc(Nc4cc(C)ccn4)n3)s2)CC1 [Compound A-505, N-methyl-2-(1-{5-[6-(4-methylpyridin-2-ylamino)pyridin-2-yl]thiazol-2-yl}piperidin-4-yl)acetamide]	–	–	IC50 [1, 3]: < 100 nM; IC50 ([2]; Tables 1-x, compounds A): 100 to 1000 nM
Cc1ccnc(Nc2cccc(-c3ccc(/C(N)=N/O)s3)n2)c1 [Compound B-60, N-hydroxy-5-[6-(4-methylpyridin-2-ylamino)pyridin-2-yl]thiophene-2-carboxyamidine]	–	–	IC50 [1, 6]: < 100 nM; IC50 [2, 7]: 100 to 1000 nM
Cc1ccnc(Nc2cccc(-c3cnc(C4CCN(C(=O)NCCO)CC4)s3)n2)c1 [Compound A-266]	100 to 1000	100 to 1000	–
CC(=O)N[C@@H](Cc1ccc(OCCO)cc1)c1ncc(-c2cccc(Nc3cc(C)ccn3)n2)s1 [Compound A-140]	100 to 1000	> 1000	–
Cc1ccnc(Nc2cccc(-c3cnc([C@@H](O)CO)s3)n2)c1 [Compound A-78]	100 to 1000	100 to 1000	–
